Tested on: 598228-144-R-J1-PDC complex spheroid viability
Test: Anticancer human tumor 598228-144-R-J1-PDC patient-derived serous endometrial adenocarcinoma cell line growth inhibition [GQUAD]
Details: for IC50: curve of first compound; for viability, T/C: stronger effect = lower value
Source text: DNA G-quadruplex Stabilizer Agents in Combinations in Complex Spheroids
A high-throughput screen of multi-cell type tumor spheroids was designed to identify active combinations of DNA G-quadruplex stabilizer agents and targeted small molecules. Complex spheroids include a stromal component modeled by human endothelial cells (HUVEC) and fibroblasts modeled by human mesenchymal stem cells (MSCs). The concentration ranges selected for each drug and investigational agent were based upon clinically achievable concentrations if the clinical Cmax of the agent was known.
Compounds. The drugs and investigational agents: pidnarulex (CX-5461; NSC782164), APTO-253 (NSC789042), BRACO-19 (NSC847499), peposertib (NSC802822), ceralasertib (NSC780249), elimusertib (NSC800525), camonsertib (NSC841442), AZD-1390 (NSC803789), olaparib (NSC753686), talazoparib (NSC767125), ART-558 (NSC835418), sotorasib (NSC818433), MRTX-1133 (NSC836407), SN-38 (NSC673596), topotecan (NSC609699), etoposide (NSC141540), doxorubicin (NSC123127), gemcitabine (NSC613327), 5-fluorouracil (NSC19893), paclitaxel (NSC125973), vemurafenib (NSC761431), panobinostat (NSC761190), R-306465 (JNJ-16241199; NSC773264), adavosertib (NSC754352), TP-3654 (NSC805149), carboplatin (NSC241240), KSQ-4279 (NSC840948), and staurosporine (NSC755774) were obtained from the National Cancer Institute (NCI) Developmental Therapeutics Program Chemical Repository (34). The FDA-approved anticancer drug set is available from the NCI Developmental Therapeutics Program. […] The stock solutions were prepared in dimethyl sulfoxide (DMSO, Sigma-Aldrich, St. Louis, MO, cat. D2650) at 800-fold the tested concentration and stored at -70 degrees C prior to their use. All drugs and investigational agents were tested over a range starting from a high concentration at or near the clinical Cmax and decreasing in half-log increments. If the clinical Cmax for an agent had not been determined, the highest concentration tested was 10 microM.
2.3 Cell Culture. All cells were maintained in an incubator at 37 degrees C and 5% CO2 with 95% humidity. The PDC lines were cultured according to standard operating procedures established by the NCI PDMR. All PDCs were thawed and cultured in Matrigel-coated flasks prepared with a working solution of 1X Ham's F-12 nutrient mix, without supplementation (Invitrogen, cat. 11765054), 100 U/mL penicillin-streptomycin (Invitrogen, cat. 15140122), and 2.5% Matrigel (Corning Inc., cat. 354248) for the first three passages. The 857933-349-R-J2-PDC line was cultured in 6C/Colon 1B media, which includes advanced DMEM/F-12 (Thermo Fisher Scientific, cat. 12634028), 10 mM HEPES (Thermo Fisher Scientific, cat. 15630080), 1X GlutaMAX supplement (Thermo Fisher Scientific, cat. 35050061), 0.1 mg/mL primocin (InvivoGen, cat. ant-pm-2), 10% defined fetal bovine serum, heat inactivated (HyClone Laboratories Inc., cat. SH30070.03HI), 50% L-WRN conditioned media (ATCC, cat. CRL-3276), 1.25 mM N-Acetyl-L-cysteine (Sigma-Aldrich, cat. A9165), 10 mM nicotinamide (Sigma-Aldrich, cat. N0636), 1X B-27 supplement (Thermo Fisher Scientific, cat. 17504044), 1X N-2 supplement (Thermo Fisher Scientific, cat. 17502048), 10 microM Y-27632 dihydrochloride (Tocris Bioscience, cat. 1254), and 50 ng/mL human EGF recombinant protein (Thermo Fisher Scientific, cat. PHG0311). The 485176-168-R4-J1-PDC line was cultured in Panc media, which includes all 6C/Colon 1B media components plus 100 ng/mL human FGF-10 (Thermo Fisher Scientific, cat. 100-26), 500 nM SB-431542 (Selleckchem, cat. S1067), and gastrin (Tocris, cat. 3006).
[…]
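Note: spheroids exposed to the agents for one week before reading.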
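Throughout, for viability, T/C: percent of vehicle DMSO control viability so 100% = untreated growth.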

## C=CC(=O)N1CCN(c2nc(=O)n(-c3c(C)ccnc3C(C)C)c3nc(-c4c(O)cccc4F)c(F)cc23)C(C)C1 (configuration not stated) + Cc1[nH]c2ccc(F)cc2c1-c1nc2c3cccnc3c3ncccc3c2[nH]1
Second compound 0.0316 µM
  IC50: > 10 µM
Second compound 0.1 µM
  IC50: > 10 µM
Second compound 0.316 µM
  IC50: > 10 µM
Second compound 1 µM
  IC50: > 10 µM
Second compound 3.16 µM
  IC50: < 0.0316 µM
Second compound 10 µM
  IC50: > 10 µM
Second compound 0.0316 µM, first compound 0.0316 µM
  viability, T/C: 119%
Second compound 0.0316 µM, first compound 0.1 µM
  viability, T/C: 95%
Second compound 0.0316 µM, first compound 0.316 µM
  viability, T/C: 105%
Second compound 0.0316 µM, first compound 1 µM
  viability, T/C: 132%
Second compound 0.0316 µM, first compound 3.16 µM
  viability, T/C: 136%
Second compound 0.0316 µM, first compound 10 µM
  viability, T/C: 123%
Second compound 0.1 µM, first compound 0.0316 µM
  viability, T/C: 88.4%
Second compound 0.1 µM, first compound 0.1 µM
  viability, T/C: 110%
Second compound 0.1 µM, first compound 0.316 µM
  viability, T/C: 102%
Second compound 0.1 µM, first compound 1 µM
  viability, T/C: 129%
Second compound 0.1 µM, first compound 3.16 µM
  viability, T/C: 136%
Second compound 0.1 µM, first compound 10 µM
  viability, T/C: 151%
Second compound 0.316 µM, first compound 0.0316 µM
  viability, T/C: 75.9%
Second compound 0.316 µM, first compound 0.1 µM
  viability, T/C: 94.8%
Second compound 0.316 µM, first compound 0.316 µM
  viability, T/C: 99.5%
Second compound 0.316 µM, first compound 1 µM
  viability, T/C: 108%
Second compound 0.316 µM, first compound 3.16 µM
  viability, T/C: 159%
Second compound 0.316 µM, first compound 10 µM
  viability, T/C: 108%
Second compound 1 µM, first compound 0.0316 µM
  viability, T/C: 58.6%
Second compound 1 µM, first compound 0.1 µM
  viability, T/C: 62.9%
Second compound 1 µM, first compound 0.316 µM
  viability, T/C: 63.7%
Second compound 1 µM, first compound 1 µM
  viability, T/C: 75.6%
Second compound 1 µM, first compound 3.16 µM
  viability, T/C: 89.3%
Second compound 1 µM, first compound 10 µM
  viability, T/C: 101%
Second compound 3.16 µM, first compound 0.0316 µM
  viability, T/C: 36.1%
Second compound 3.16 µM, first compound 0.1 µM
  viability, T/C: 37.2%
Second compound 3.16 µM, first compound 0.316 µM
  viability, T/C: 55.9%
Second compound 3.16 µM, first compound 1 µM
  viability, T/C: 57.7%
Second compound 3.16 µM, first compound 3.16 µM
  viability, T/C: 59.5%
Second compound 3.16 µM, first compound 10 µM
  viability, T/C: 70%
Second compound 10 µM, first compound 0.0316 µM
  viability, T/C: 57.1%
Second compound 10 µM, first compound 0.1 µM
  viability, T/C: 75.6%
Second compound 10 µM, first compound 0.316 µM
  viability, T/C: 63.8%
Second compound 10 µM, first compound 1 µM
  viability, T/C: 69.1%
Second compound 10 µM, first compound 3.16 µM
  viability, T/C: 80.9%
Second compound 10 µM, first compound 10 µM
  viability, T/C: 103%

Source: PubChem BioAssay AID2060506 (Molecular Pharmacology Branch, DTP, NCI, 2025)
